Patent publication US10052320B2, “Substituted quinoxalines as FGFR kinase inhibitors” (ASTEX THERAPEUTICS LIMITED, priority 2011, dated 2018)
Where two headings read alike, the source gives them in different places.

How the values were obtained:
[1] = molecular target: Ba/F3-KDR-transfected cells (Homo sapiens, UniProt P35968); assay: Ba/F3-KDR (minus IL3) cellular proliferation assay, Alamar Blue; type: cell-based
Method: Ba/F3-KDR (Minus IL3 or Plus IL3) (Cellular Proliferation Assay)
(§1) In a 384 well plate, 100 nl of compound dilution in DMSO was sprayed before adding 50 μl cell culture medium (phenol red free RPMI-1640, 10% FBS, 2 mM L-Glutamine and 50 μg/ml Gentamycin) containing 20000 cells per well of Ba/F3-KDR-transfected cells. Cells were put in an incubator at 37° C. and 5% CO2. After 24 hours, 10 μl of Alamar Blue solution (0.5 mM K3Fe(CN)6, 0.5 mM KaFe(CN)6, 0.15 mM Resazurin and 100 mM Phosphate Buffer) was added to the wells, incubated for 4 hours at 37° C. and 5% CO2 before RFU's (Relative Fluorescence Units) (ex. 540 nm., em. 590 nm.) were measured in a flurorescence plate reader.
(§2) As a counterscreen the same experiment was performed in the presence of 10 ng/ml murine IL3.
as §1, with “a 96” for “a 384”, “plate, 180” for “plate, 100 nl of compound dilution in DMSO was sprayed before adding 50”, “containing 10000” for “containing 20000”, “Ba/F3-KDR-transfected cells were pipette and 20 μl of compound dilution in DMSO was added.” for “Ba/F3-KDR-transfected cells.”, “hours, 40” for “hours, 10”, “CO2” for “CO2 before”

FGFR4 (h) = FGFR4 (h) (Homo sapiens, UniProt P22455); assay: FGFR4 (enzymatic assay), TR-FRET; type: biochemical; conditions: read-out: FGFR 4 pIC50 (converted)
Method: In a final reaction volume of 30 μL, FGFR4 (h) (60 ng/ml) was incubated with 50 mM HEPES pH 7.5, 6 mM MnCl2, 1 mM DTT, 0.1 mM Na3VO4, 0.01% Triton-X-100, 500 nM Btn-Flt3 and 5 μM ATP in the presence of compound (1% DMSO final). […] Time-Resolved Fluorescence Resonance Energy Transfer (TR-FRET) signal (ex340 nm. Em 620 nm, em 655 nm) was measured afterwards and results are expressed in RFU (Relative Fluorescence Units).

KDR (h) (VEGFR2) = KDR (h) (VEGFR2) (Homo sapiens, UniProt P35968); assay: KDR (VEGFR2) (enzymatic assay), TR-FRET; type: biochemical
Method: KDR (VEGFR2) (Enzymatic Assay)
In a final reaction volume of 30 μL, KDR (h) (150 ng/ml) was incubated with 50 mM HEPES pH 7.5, 6 mM MnCl2, 1 mM DTT, 0.1 mM Na3VO4, 0.01% Triton-X-100, 500 nM Btn-Flt3 and 3 μM ATP in the presence of compound (1% DMSO final). After incubation for 120 minutes at room temperature the reaction was stopped with 2.27 nM EU-anti P-Tyr, 7 mM EDTA, 31.25 nM SA-XL-665 and 0.02% BSA which was present for 60 minutes at room temperature. Time-Resolved Fluorescence Resonance Energy Transfer (TR-FRET) signal (ex340 nm. Em 620 nm, em 655 nm) was measured afterwards and results are expressed in RFU (Relative Fluorescence Units).

[2] = test system: Ba/F3-FGFR1-transfected cells in the presence of 10 ng/ml murine IL3; assay: Ba/F3-FGFR1 (plus IL3) cellular proliferation counterscreen, Alamar Blue; type: cell-based; conditions: for IC50: Mus musculus
Method: Ba/F3-FGFR1 (Minus IL3 or Plus IL3) (Cellular Proliferation Assay)
as §1, with “Ba/F3-FGFR1-transfected” for “Ba/F3-KDR-transfected”
as §2
as §1, with “a 96” for “a 384”, “plate, 180” for “plate, 100 nl of compound dilution in DMSO was sprayed before adding 50”, “containing 10000” for “containing 20000”, “of Ba/F3-FGFR1-transfected cells were pipette and 20 μl of compound dilution in DMSO was added.” for “of Ba/F3-KDR-transfected cells.”, “hours, 40” for “hours, 10”

[3] = plus IL3, 96 well, read-out: BAF3-FGFR 1 (PLUS IL3) 96 well pIC50 (converted)
[4] = plus IL3, 384 well, read-out: BAF3-FGFR 1 (PLUS IL3) 384 well pIC50 (converted)

Sequence of FGFR4 (h) (P22455 22-802): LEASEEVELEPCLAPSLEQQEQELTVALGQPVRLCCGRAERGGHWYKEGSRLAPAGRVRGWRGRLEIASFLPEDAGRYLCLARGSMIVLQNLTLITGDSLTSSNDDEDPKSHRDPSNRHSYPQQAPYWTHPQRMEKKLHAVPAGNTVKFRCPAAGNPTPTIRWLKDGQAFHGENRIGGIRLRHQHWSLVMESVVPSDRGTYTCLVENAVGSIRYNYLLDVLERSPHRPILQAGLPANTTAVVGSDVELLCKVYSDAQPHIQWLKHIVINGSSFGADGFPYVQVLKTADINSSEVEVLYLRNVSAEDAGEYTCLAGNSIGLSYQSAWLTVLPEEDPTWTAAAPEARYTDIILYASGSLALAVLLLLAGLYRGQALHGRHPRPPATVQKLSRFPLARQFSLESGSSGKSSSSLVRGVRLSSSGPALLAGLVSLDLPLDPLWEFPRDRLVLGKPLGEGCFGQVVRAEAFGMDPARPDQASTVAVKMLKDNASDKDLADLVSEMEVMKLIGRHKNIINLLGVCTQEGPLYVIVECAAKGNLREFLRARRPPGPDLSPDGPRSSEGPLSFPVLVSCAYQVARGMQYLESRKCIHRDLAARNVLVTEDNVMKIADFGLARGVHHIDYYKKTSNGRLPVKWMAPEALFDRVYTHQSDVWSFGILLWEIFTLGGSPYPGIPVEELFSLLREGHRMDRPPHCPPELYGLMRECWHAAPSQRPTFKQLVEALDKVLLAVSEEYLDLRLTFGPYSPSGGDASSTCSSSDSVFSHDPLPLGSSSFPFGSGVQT
Sequence of KDR (h) (VEGFR2) (P35968 20-1356): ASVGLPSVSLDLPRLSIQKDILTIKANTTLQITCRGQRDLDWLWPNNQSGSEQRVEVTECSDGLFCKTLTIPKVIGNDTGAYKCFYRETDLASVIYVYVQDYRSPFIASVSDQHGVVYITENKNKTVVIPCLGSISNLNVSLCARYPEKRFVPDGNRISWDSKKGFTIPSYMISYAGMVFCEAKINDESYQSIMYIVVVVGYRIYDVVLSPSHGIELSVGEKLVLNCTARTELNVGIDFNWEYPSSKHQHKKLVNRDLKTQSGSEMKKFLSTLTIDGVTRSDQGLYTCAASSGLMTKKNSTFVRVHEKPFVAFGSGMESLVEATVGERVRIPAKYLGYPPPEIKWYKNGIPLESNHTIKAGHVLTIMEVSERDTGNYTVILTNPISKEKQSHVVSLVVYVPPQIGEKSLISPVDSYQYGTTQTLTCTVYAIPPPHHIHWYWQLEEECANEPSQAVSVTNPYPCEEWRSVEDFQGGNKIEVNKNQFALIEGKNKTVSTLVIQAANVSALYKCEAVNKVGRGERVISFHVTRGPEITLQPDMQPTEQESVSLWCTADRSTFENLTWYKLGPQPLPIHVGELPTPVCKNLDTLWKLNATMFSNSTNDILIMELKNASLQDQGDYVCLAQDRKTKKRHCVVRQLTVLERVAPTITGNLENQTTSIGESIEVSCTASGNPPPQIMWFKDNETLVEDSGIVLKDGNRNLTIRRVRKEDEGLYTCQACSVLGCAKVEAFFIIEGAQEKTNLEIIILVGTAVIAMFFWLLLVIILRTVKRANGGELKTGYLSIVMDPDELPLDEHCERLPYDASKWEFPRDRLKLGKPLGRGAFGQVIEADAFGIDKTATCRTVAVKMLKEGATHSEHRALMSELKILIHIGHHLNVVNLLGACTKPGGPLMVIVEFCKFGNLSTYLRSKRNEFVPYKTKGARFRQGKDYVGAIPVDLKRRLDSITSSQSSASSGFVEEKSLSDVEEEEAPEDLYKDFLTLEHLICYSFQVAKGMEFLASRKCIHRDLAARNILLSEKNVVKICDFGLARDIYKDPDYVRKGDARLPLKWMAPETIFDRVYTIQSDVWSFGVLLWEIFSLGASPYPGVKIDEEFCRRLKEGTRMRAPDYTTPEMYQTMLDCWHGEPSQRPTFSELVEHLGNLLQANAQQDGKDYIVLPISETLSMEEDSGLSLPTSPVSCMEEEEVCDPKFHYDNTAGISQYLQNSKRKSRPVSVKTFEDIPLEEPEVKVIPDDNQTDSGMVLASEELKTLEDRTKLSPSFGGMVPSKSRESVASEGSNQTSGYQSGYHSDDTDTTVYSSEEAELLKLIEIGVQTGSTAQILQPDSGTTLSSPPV
Sequence of Ba/F3-KDR-transfected cells (P35968 whole entry, change not shown): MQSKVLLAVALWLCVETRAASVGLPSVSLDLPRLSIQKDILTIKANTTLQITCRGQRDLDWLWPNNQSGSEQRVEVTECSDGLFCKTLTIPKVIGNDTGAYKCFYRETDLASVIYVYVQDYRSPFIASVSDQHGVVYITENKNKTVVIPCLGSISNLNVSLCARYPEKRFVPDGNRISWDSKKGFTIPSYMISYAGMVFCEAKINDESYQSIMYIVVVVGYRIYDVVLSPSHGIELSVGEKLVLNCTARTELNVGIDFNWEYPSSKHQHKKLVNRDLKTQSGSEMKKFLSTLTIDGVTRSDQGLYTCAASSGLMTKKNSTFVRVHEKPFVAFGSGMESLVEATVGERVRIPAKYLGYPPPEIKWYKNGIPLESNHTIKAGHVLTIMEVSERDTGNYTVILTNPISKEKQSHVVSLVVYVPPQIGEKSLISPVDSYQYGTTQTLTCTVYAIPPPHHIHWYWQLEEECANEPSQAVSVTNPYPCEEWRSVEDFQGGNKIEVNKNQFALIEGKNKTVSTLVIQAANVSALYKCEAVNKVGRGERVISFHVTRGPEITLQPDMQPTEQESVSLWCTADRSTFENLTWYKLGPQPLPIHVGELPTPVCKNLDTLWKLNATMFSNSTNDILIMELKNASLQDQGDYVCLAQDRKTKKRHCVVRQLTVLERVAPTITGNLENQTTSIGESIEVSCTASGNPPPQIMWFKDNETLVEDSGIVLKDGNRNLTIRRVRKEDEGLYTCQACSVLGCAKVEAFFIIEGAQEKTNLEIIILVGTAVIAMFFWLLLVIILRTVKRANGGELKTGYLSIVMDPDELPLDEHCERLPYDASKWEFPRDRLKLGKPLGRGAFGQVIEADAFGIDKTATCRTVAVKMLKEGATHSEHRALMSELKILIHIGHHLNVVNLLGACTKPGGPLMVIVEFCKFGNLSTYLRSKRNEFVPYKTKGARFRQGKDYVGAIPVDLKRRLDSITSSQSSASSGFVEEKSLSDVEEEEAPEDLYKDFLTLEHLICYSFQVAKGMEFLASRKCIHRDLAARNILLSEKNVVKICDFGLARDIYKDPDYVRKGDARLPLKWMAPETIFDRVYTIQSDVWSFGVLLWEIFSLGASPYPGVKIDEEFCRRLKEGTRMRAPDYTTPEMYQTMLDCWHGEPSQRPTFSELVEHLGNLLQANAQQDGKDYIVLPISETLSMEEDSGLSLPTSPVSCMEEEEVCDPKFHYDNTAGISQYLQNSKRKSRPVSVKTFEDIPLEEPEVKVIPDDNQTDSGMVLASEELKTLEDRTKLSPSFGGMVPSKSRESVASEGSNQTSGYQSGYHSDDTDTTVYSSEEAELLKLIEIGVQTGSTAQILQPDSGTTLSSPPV

| BAF3-KDR (MIN IL3) 384 well pIC50 ([1]; minus IL3) | IC50 (FGFR4 (h)) [nM] | IC50 (KDR (h) (VEGFR2)) [nM] | BAF3-KDR (MIN IL3) 384 well pIC50 ([1]; minus IL3, 384 well) | SMILES | IC50 [2, 3] [nM] | IC50 [2, 4] [nM] | BAF3-FGFR 1 (PLUS IL3) 384 well pIC50 ([2]; plus IL3, 384 well) |
| --- | --- | --- | --- | --- | --- | --- | --- |
| <5 | > 10000 | > 10000 |  | COc1cc(OC)cc(N(CC2CC2)c2ccc3ncc(C(=O)Nc4cncn4C)nc3c2)c1 [Compound 27] | > 10000 | > 10000 |  |
| 5.75 | 8.32 | 63.1 |  | COc1cc(OC)cc(N(CCNC(C)C)c2ccc3ncc(-c4ccc(N5CCOCC5)nc4)nc3c2)c1 [Compound 168] |  | 7760 |  |
| <5 | 107 | 389 |  | COCC(CN(c1cc(OC)cc(OC)c1)c1ccc2ncc(-c3cccnc3)nc2c1)OC(C)=O (single isomer, unassigned) [Compound 76] |  |  | <5 |
|  | 3980 | > 10000 | <5 | COc1cc(OC)cc(N(CC2CC2)c2ccc3ncc(-c4ccc5[nH]ccc5c4)nc3c2)c1 [Compound 86] |  |  |  |
| <5 | > 10000 | > 10000 |  | COc1cc(OC)cc(N(CC2CC2)c2ccc3ncc(C(=O)N4CCC4)nc3c2)c1 [Compound 93] | > 10000 | > 10000 |  |
| 5.66 | 64.6 | 45.7 |  | COc1cc(OC)cc(N(CCN2CCNCC2)c2ccc3ncc(-c4ccc(N)nc4)nc3c2)c1 [Compound 59] |  | > 10000 |  |
| <5 | 1580 | 3980 |  | COc1cc(OC)cc(N(CC2CC2)c2ccc3ncc(N4CCN(CCO)CC4)nc3c2)c1 [Compound 49] |  | > 10000 |  |
| 5.3 | 120 | 355 |  | COc1cc(OC)cc(N(CCO)c2ccc3ncc(-c4ccc(N5CCN(C)CC5)nc4)nc3c2)c1 [Compound 163] |  | ~10000 |  |
| <5 | 178 | 759 |  | COc1cc(OC)cc(N(CCO)c2ccc3ncc(-c4ccnc(C(=O)NCCCCCN)c4)nc3c2)c1 [Compound 138] |  |  |  |
| <5 | 195 | > 1000 |  | COc1cc(OC)cc(N(CC#Cc2ncccn2)c2ccc3ncc(-c4cccnc4)nc3c2)c1 [Compound 2] |  | 7410 |  |
| <5 | > 1000 | > 1000 |  | COc1cc(OC)cc(N(CCCO)c2ccc3ncc(-c4ccnc(-c5ccnc(Cl)c5)c4)nc3c2)c1 [Compound 133] |  | > 10000 |  |
| <5 | 126 | 871 |  | COc1cc(OC)cc(N(CCCO)c2ccc3ncc(-c4ccnc(C(=O)NCCOCCO)c4)nc3c2)c1 [Compound 186] |  | > 10000 |  |
| <5 | 603 | 112 |  | COc1cc(OC)cc(N(CCNC(C)C)c2ccc3ncc(C(=O)NCCCN4CCCCC4)nc3c2)c1 [Compound 182] |  | > 10000 |  |
| <5 | 115 | 339 |  | COCC(O)CN(c1cc(OC)cc(OC)c1)c1ccc2ncc(-c3cccnc3)nc2c1 (single isomer, unassigned) [Compound 47] |  |  | <5 |
| <5 | 93.3 | 708 |  | COc1cc(OC)cc(N(CCO)c2ccc3ncc(-n4cnc(CO)c4)nc3c2)c1 [Compound 38] |  | > 10000 |  |
| <5 | 977 | 191 |  | COc1cc(OC)cc(N(CCNC(C)C)c2ccc3ncc(C(=O)N4CCCCC4)nc3c2)c1 [Compound 180] |  | > 10000 |  |
| <5 | 28.8 | 135 |  | COc1cc(OC)cc(N(CCNC(C)C)c2ccc3ncc(-c4ccc(N5CCN(C)CC5)nc4)nc3c2)c1 [Compound 170] |  | 3550 |  |
| 5.07 | 45.7 | 245 |  | COc1cc(OC)cc(N(CCCO)c2ccc3ncc(-c4ccnc(C(=O)N5CCOCC5)c4)nc3c2)c1 [Compound 43] |  | > 10000 |  |
| <5 | > 10000 | > 10000 |  | COc1cc(OC)cc(N(CC2CC2)c2ccc3ncc(-n4cccn4)nc3c2)c1 [Compound 95] |  |  |  |
| 5.14 | 70.8 |  |  | COc1cc(OC)cc(N(CCNC(C)C)c2ccc3ncc(-c4ccnn4C4CCCCO4)nc3c2)c1 (stereo not drawn) [Compound 188] |  | > 10000 |  |
| 5.67 | 42.7 | 275 |  | COc1cc(OC)cc(N(CCCNC(C)C)c2ccc3ncc(-c4ccnc(NC(=O)OC(C)(C)C)c4)nc3c2)c1 [Compound 137] |  |  |  |
| 5.33 | 28.8 | 170 |  | COc1cc(OC)cc(N(CCCO)c2ccc3ncc(-c4cnc(N5CCN(C)CC5)c(C)c4)nc3c2)c1 [Compound 135] |  |  |  |
|  | 3550 | > 10000 | <5.4 | COc1cc(OC)cc(N(CC2CC2)c2ccc3ncc(-c4ccc5c(c4)OCO5)nc3c2)c1 [Compound 87] |  |  |  |
|  | 1480 | 8320 | <5 | COc1cc(OC)cc(N(CC2CC2)c2ccc3ncc(-c4nnc(C)o4)nc3c2)c1 [Compound 85] |  |  |  |
| <5 | 2400 | 1950 |  | COc1cc(OC)cc(N(CC2CC2)c2ccc3ncc(-c4cccc(N5CCOCC5)c4)nc3c2)c1 [Compound 92] |  |  |  |
| <5 | 617 | > 1000 |  | COc1cc(OC)cc(N(CCO)c2ccc3ncc(N4CCC(CN)CC4)nc3c2)c1 [Compound 84] |  |  |  |
|  | > 10000 | > 10000 | <5 | COc1cc(OC)cc(N(CC2CC2)c2ccc3ncc(-c4cnc5[nH]ccc5c4)nc3c2)c1 [Compound 88] |  |  |  |
| 5.07 |  | 126 |  | COc1cc(OC)cc(N(CCCNCC(F)(F)F)c2ccc3ncc(-c4ccn(C)c4)nc3c2)c1 [Compound 5] |  | > 10000 |  |
|  | > 10000 | > 10000 |  | COc1cc(OC)cc(N(CC2CC2)c2ccc3ncc(-c4ccnc(N5CCOCC5)c4)nc3c2)c1 [Compound 90] | > 10000 |  |  |
